Columns and labels:
[1] = molecular target: T1, Potassium-transporting ATPase (Sus scrofa) (UniProt P18434+P19156); experiment: Inhibition of procine gastric H+,K+-ATPase at 1 uM in vitro.; format: tissue-based; conditions: Stomach
[2] = molecular target: T1, Potassium-transporting ATPase (Sus scrofa); experiment: Inhibition of procine gastric H+,K+-ATPase at 100 uM in vitro.; format: tissue-based; conditions: Stomach
[3] = molecular target: T1, Potassium-transporting ATPase (Sus scrofa); experiment: Inhibition of procine gastric H+,K+-ATPase at 10 uM in vitro.; format: tissue-based; conditions: Stomach
[4] = Vmax value was measured at 0 uM concentration of silyl ether.; format: ADME, Sus scrofa; conditions: pig
[5] = molecular target: Potassium-transporting ATPase (Sus scrofa, UniProt P19156); experiment: Tested for inhibitory activity against gastric H+, K+-ATPase; format: tissue-based, Stomach
Potassium-transporting ATPase, sequence (P18434 whole entry): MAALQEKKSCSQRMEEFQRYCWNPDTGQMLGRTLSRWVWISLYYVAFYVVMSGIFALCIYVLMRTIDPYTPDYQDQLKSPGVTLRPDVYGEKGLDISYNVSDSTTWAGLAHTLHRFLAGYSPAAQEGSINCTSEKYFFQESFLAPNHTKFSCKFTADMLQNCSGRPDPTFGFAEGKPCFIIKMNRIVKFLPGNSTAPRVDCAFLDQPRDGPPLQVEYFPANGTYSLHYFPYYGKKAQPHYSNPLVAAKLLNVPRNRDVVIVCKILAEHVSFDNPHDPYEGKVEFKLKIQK
Potassium-transporting ATPase, sequence (P19156 whole entry): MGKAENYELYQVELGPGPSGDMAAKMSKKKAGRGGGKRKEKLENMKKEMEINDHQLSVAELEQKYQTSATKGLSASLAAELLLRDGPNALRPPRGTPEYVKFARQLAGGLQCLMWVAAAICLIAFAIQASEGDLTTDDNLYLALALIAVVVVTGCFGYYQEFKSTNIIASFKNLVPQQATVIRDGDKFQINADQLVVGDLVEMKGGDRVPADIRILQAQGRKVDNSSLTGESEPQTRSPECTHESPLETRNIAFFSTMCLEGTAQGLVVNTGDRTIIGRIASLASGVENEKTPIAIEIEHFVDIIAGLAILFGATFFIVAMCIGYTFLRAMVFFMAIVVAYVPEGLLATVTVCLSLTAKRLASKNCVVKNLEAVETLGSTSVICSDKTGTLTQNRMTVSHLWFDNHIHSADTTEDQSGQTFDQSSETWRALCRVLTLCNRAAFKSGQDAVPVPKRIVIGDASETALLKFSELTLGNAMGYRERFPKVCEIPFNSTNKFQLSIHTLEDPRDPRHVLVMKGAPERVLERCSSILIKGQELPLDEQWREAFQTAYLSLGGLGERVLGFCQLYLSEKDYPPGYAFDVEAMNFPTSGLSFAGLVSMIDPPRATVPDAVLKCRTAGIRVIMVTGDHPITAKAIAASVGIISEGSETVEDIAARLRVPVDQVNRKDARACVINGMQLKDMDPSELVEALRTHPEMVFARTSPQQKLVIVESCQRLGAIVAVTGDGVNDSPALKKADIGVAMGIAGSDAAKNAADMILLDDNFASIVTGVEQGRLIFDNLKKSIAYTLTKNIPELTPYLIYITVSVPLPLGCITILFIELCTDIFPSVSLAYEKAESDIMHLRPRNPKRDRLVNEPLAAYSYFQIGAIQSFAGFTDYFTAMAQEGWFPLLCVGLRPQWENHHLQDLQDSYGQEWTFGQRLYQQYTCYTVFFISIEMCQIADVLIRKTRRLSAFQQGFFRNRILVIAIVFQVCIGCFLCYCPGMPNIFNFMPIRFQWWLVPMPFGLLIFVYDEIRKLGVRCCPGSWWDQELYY

[6] = Vmax value was measured at 5 uM concentration of silyl ether.; format: ADME, Sus scrofa; conditions: pig
[7] = Michaelis-Menten constant of the compound.; format: ADME, Sus scrofa; conditions: pig
[8] = Vmax value was measured at 10 uM concentration of silyl ether.; format: ADME, Sus scrofa; conditions: pig

SMILES: C[C@]12CCC3=CC(=O)c4ccccc4[C@@]3(CC1)C2
- inhibition [1]: -2%
- inhibition [2]: 52%
- inhibition [3]: 9%

SMILES: C=C1CCC(C)=CC[C@@H]1C[C@@H](O)C#CCCCC1OCCO1
- inhibition [1]: 8%
- inhibition [2]: 20%
- inhibition [3]: 13%

SMILES: CC1=CCC(CC(O)c2ccccc2I)C(=O)CC1 (configuration not stated)
- inhibition [1]: 10%
- inhibition [2]: 72%
- inhibition [3]: 19%

SMILES: COCO[C@H]1C[C@@H]2C[C@@H](O[Si](C)(C)C)C3[C@@H](C#N)CCC[C@]3(C)[C@]23CC[C@@]1(C)C3 (some centres not stated)
- inhibition [1]: 4%
- inhibition [2]: 67%
- inhibition [3]: 32%

SMILES: C=C[C@@]1(C)C[C@@H]1C(=O)CCC(O[Si](C)(C)C(C)(C)C)c1ccccc1I (some centres not stated)
- inhibition [1]: 29%
- inhibition [2]: 80%
- inhibition [3]: 50%

SMILES: C[C@]12C=CC3=CC(=O)c4ccccc4[C@@]3(CC1)C2
- inhibition [1]: 16%
- inhibition [2]: 61%
- inhibition [3]: 9%

SMILES: COC(=O)[C@]1(C)CCC[C@@]2(C)[C@H]1[C@H](OC(=O)c1ccccc1)C[C@H]1CC(=O)[C@@]3(C)CC[C@]12C3
- inhibition [1]: 36%
- inhibition [2]: 81%
- inhibition [3]: 74%

SMILES: CC1=CCC(CC(O[Si](C)(C)C(C)(C)C)c2ccccc2I)C(=O)CC1 (configuration not stated)
- Vmax [4]: 125 µM/h/mg
- inhibition [1]: 30%
- IC50 [5]: 8.2 µM
- Vmax [6]: 63 µM/h/mg
- inhibition [2]: 95%
- Km [7]: 460 µM
- inhibition [3]: 74%
- Vmax [8]: 31 µM/h/mg

SMILES: CO[C@H]1C[C@@H]2CC(=O)C3=C(CCC[C@@]3(C)CO)[C@]23CC[C@@]1(C)C3
- inhibition [1]: 9%
- inhibition [2]: 8%
- inhibition [3]: 14%

SMILES: C=C1CCC(C)=CCC1CC(O[Si](C)(C)C(C)(C)C)c1ccccc1I (configuration not stated)
- inhibition [1]: 15%
- inhibition [2]: 98%
- inhibition [3]: 63%

SMILES: CO[C@H]1C[C@@H]2C[C@@H]3OC(=O)c4cccc(c43)[C@]23CC[C@@]1(C)C3
- inhibition [1]: 1%
- inhibition [2]: 55%
- inhibition [3]: 16%

SMILES: CC1=CCC(CCO)C(=O)CC1 (configuration not stated)
- inhibition [1]: 11%
- inhibition [2]: 34%
- inhibition [3]: 9%

SMILES: CO[C@H]1C[C@@H]2C[C@H](O)c3c(C(=O)O)cccc3[C@]23CC[C@@]1(C)C3
- inhibition [1]: -6%
- inhibition [2]: 21%
- inhibition [3]: 0%

SMILES: C[C@]12CC[C@@]3(C1)c1ccccc1C(=O)C[C@H]3C[C@@H]2O
- inhibition [1]: 18%
- inhibition [2]: 0%
- inhibition [3]: 19%

SMILES: C[C@]12CC[C@]3(C1)C(=CC(=O)c1ccccc13)C[C@@H]2O
- inhibition [1]: 8%
- inhibition [2]: 17%
- inhibition [3]: 17%

SMILES: COCO[C@H]1C[C@@H]2CC(=O)C3[C@@H](C#N)CCC[C@]3(C)[C@]23CC[C@@]1(C)C3 (some centres not stated)
- inhibition [1]: 5%
- inhibition [2]: 17%
- inhibition [3]: 7%

SMILES: C=C1CCC(C)=CC[C@@H]1C[C@H](/C=C(\I)CCCC1OCCO1)O[Si](C)(C)C(C)(C)C
- inhibition [1]: 14%
- inhibition [2]: 93%
- inhibition [3]: 63%

SMILES: COCO[C@H]1C[C@@H]2C[C@@H](O[Si](C)(C)C)C3[C@](C#N)(COCc4ccccc4)CCC[C@]3(C)[C@]23CC[C@@]1(C)C3 (some centres not stated)
- inhibition [1]: 25%
- inhibition [2]: 52%
- inhibition [3]: 44%

SMILES: C[C@]12CC[C@]3(C1)[C@H](CC2=O)C[C@@H](OC(=O)c1ccccc1)[C@H]1[C@](C)(C(=O)O)CCC[C@@]13C
- inhibition [1]: 7%
- inhibition [2]: 62%
- inhibition [3]: 21%

SMILES: C=C[C@@]1(C)C[C@@H]1C(=O)CCC(O)c1ccccc1I (some centres not stated)
- inhibition [1]: 8%
- inhibition [2]: 63%
- inhibition [3]: 35%

SMILES: CO[C@H]1C[C@@H]2CC(=O)c3ccccc3[C@]23CC[C@@]1(C)C3
- inhibition [2]: 42%
- inhibition [3]: 17%

— ChEMBL document CHEMBL1150552, “Silyl ethers of cycloheptene, novel proton pump inhibitors obtained during the total synthesis of the scopadulcic acids” (Bioorg Med Chem Lett, 1995)
